Reference: patent publication US4001248A, “N-cycloalkylmethyl decahydroisoquinolines” (Eli Lilly and Company, priority 1974, dated 1977)
Where “and” joins values, the source holds several entries; their conditions need not be identical. Identical values can stand only once.

Key:
[1] = system: writhing in mice induced by the intraperitoneal injection of acetic acid; experiment: mouse-writhing test (inhibition of writhing induced by intraperitoneal acetic acid); assay type: in vivo; details: reading at 0.25 hours
Excerpt: In the Table, column 1 gives the name of the compund; column 2, the dosage in mg./kg. of mouse weight; column 3, the route of administration of the drug ("S.C." is subcutaneous and "or" is oral); and column 4, the percent inhibition found at the particular dose level. […] Median inhibiting doses (I.D.50) are also included in the Table.

[2] = system: morphine induced Straub tail; experiment: blocking of morphine induced Straub tail in mice; assay type: in vivo; details: for blocking on the morphine-induced Straub tail: 15 and 30 minutes before assay
Protocol: In this assay, a 40 mg./kg. dose of morphine was administered to mice 15 minutes prior to assay, and the test drug at various intervals before assay. Trans-dl-1 -cyclopropylmethyl-3a-(m-hydroxyphenyl)-1,2,3,3a,4,5,6,7,7a,8-decahydroisoquinoline maleate gave a 100 percent block of the Straubed tail effected by a subcutaneous injection of 40 mg./kg. of morphine when the test drug was given at a dose of 50 mg./kg. subcutaneously 15 minutes prior to assay, and 80 percent when given 30 minutes prior to assay. The l(-) isomer gave 100 percent blocking on the morphine-induced Straub tail at 50 and 20 mg./kg. doses 15 and 30 minutes before assay.

toxicity (L.D.50) = assay type: in vivo, mice; details: compared with dl mixture; listed as l(-) isomer
rat tail jerk = rat tail jerk assay (increase in reaction time over control); assay type: in vivo
Excerpt: The compounds of this invention are also active in the rat tail jerk assay, another standard pharmacologic test for analgesic activity of the opiate-type. Such activity is manifested as an increase in the reaction time of the animal in removing (jerking) its tail from a nearby heat stimulus (a resistance wire) after drug administration compared to control time (no drug administered). Table 2 which follows gives the increased reaction times over control times produced by the compounds of this invention when administered subcutaneously. In Tables 2 and 3, column 1 gives the name of the compound; column 2, the dose; column 3, time of observation after administration of the drug; column 4, the increase in reaction time above control in seconds; and column 5, the level of significance of the results ("p" value). […] All drugs were administered as aqueous solutions. More than one value for a given dose level indicates multiple determinations. The results are not averaged.

morphine = experiment: modified rat tail jerk assay, antagonism of morphine; assay type: in vivo, rats; details: subcutaneous
Protocol: The ability of the compounds of this invention to antagonize the action of morphine, an opiate, is shown by the following modification of the aforementioned rat tail jerk assay: The standard assay procedure is used with the exception that a 7 amps. current is used instead of a 6 amps. current in the hot wire to decrease the measurable agonist effects of the antagonist. The drugs under test are then administered to groups of rats at different dose levels at different times prior to test, with a 5 mg./kg. dose of morphine invariably being administered 10 minutes prior to test. Positive evidence of antagonism is a decreased reaction time over that to be expected from the morphine. […] Among the compounds of this invention, those in which R in Structure I is cyclopropylmethyl are the preferred antagonists, showing activity in the above test procedure. […] In a series of determinations, it was ascertained that the minimum subcutaneous dose necessary to reduce the analgesic effects of a 5 mg./kg. subcutaneous dose of morphine was in the range 2.5-5.0 mg./kg. and the minimum oral dose, 5-10 mg./kg.

Structure (SMILES): O=C(O)/C=C\C(=O)O.Oc1cccc([C@@]23CCCC[C@H]2CN(CC2CC2)CC3)c1 (stereo in doubt) [Trans-l(-)-1-cyclopropylmethyl-3a-(m-hydroxyphenyl)-1,2,3,3a] [Trans-l(-)-1-cyclopropylmethyl-3a-(m-hydroxyphenyl)-1,2,3,3a,4,5,6,7,7a,8-decahydroisoquinoline maleate]
- % Inhibition ([1]; 2 mg./kg. S.C.): 47%
- % Inhibition ([1]; 5 mg./kg. S.C.): 72%
- blocking on the morphine-induced Straub tail ([2]; 20 mg./kg.): 100%
- blocking on the morphine-induced Straub tail ([2]; 50 mg./kg.): 100%
- blocking the morphine induced Straub tail ([2]; morphine 40 mg./kg.): manifests antagonistic effects in blocking the morphine induced Straub tail in mice
- toxicity relative to the dl mixture (toxicity (L.D.50)): less toxic than the dl mixture
- Increase in Reaction Time Over Control (rat tail jerk; oral, 5 mg./kg., 60 min): .20 s
- Increase in Reaction Time Over Control (rat tail jerk; oral, 10 mg./kg., 60 min): .65 s
- Increase in Reaction Time Over Control (rat tail jerk; oral, 25 mg./kg., 60 min): 1.30 s
- Increase in Reaction Time Over Control (rat tail jerk; oral, 50 mg./kg., 30 min): 2.25 s
- Increase in Reaction Time Over Control (rat tail jerk; oral, 50 mg./kg., 60 min): 2.80 s
- Increase in Reaction Time Over Control (rat tail jerk; oral, 50 mg./kg., 120 min): .80 s
- Increase in Reaction Time Over Control (rat tail jerk; oral, 100 mg./kg., 60 min): 3.15 s
- Increase in Reaction Time Over Control (rat tail jerk; oral, 200 mg./kg., 30 min, 20 sec. cut off): 4.90 s
- Increase in Reaction Time Over Control (rat tail jerk; oral, 200 mg./kg., 60 min): 5.40 s
- Increase in Reaction Time Over Control (rat tail jerk; oral, 200 mg./kg., 120 min): 2.65 s
- Increase in Reaction Time Over Control (rat tail jerk; subcutaneous, 0.1 mg./kg., 30 min): 85 s
- Increase in Reaction Time Over Control (rat tail jerk; subcutaneous, 0.5 mg./kg., 30 min): 1.30 s
- Increase in Reaction Time Over Control (rat tail jerk; subcutaneous, 1 mg./kg., 30 min): 0 s
- Increase in Reaction Time Over Control (rat tail jerk; subcutaneous, 5 mg./kg., 10 min): 2.75 s
- Increase in Reaction Time Over Control (rat tail jerk; subcutaneous, 5 mg./kg., 15 min): 3.45 s
- Increase in Reaction Time Over Control (rat tail jerk; subcutaneous, 5 mg./kg., 30 min): 3.55 s and 2.95 s
- Increase in Reaction Time Over Control (rat tail jerk; subcutaneous, 5 mg./kg., 30 min, 20 sec. cut off): 6.65 s and 6.95 s
- Increase in Reaction Time Over Control (rat tail jerk; subcutaneous, 5 mg./kg., 60 min): 1.0 s
- Increase in Reaction Time Over Control (rat tail jerk; subcutaneous, 5 mg./kg., 120 min): 0 s
- Increase in Reaction Time Over Control (rat tail jerk; subcutaneous, 5 mg./kg., 180 min): 0 s
- Increase in Reaction Time Over Control (rat tail jerk; subcutaneous, 10 mg./kg., 10 min, 20 sec. cut off): 7.30 s
- Increase in Reaction Time Over Control (rat tail jerk; subcutaneous, 10 mg./kg., 15 min): 5.80 s
- Increase in Reaction Time Over Control (rat tail jerk; subcutaneous, 10 mg./kg., 15 min, 20 sec. cut off): 6.70 s
- Increase in Reaction Time Over Control (rat tail jerk; subcutaneous, 10 mg./kg., 60 min): 3.0 s
- Increase in Reaction Time Over Control (rat tail jerk; subcutaneous, 10 mg./kg., 90 min): 2.55 s
- Increase in Reaction Time Over Control (rat tail jerk; subcutaneous, 10 mg./kg., 120 min): 4.0 s
- Increase in Reaction Time Over Control (rat tail jerk; subcutaneous, 10 mg./kg., 180 min): 1.50 s
- Increase in Reaction Time Over Control (rat tail jerk; subcutaneous, 50 mg./kg., 15 min): 7.35 s
- dose showing antagonism of morphine (morphine): 1 to 2 mg/kg
